Values after ≈ are worked out from the molar mass of the structure shown.
How the values were obtained:
Experiment in all cases: ≥ marks a high value that may be exact or a test limit, other limits are often not marked, values filed in µg/mL are converted to µM
[1] = tested on: Acinetobacter baumannii ATCC 19606
[2] = tested on: Staphylococcus aureus ATCC BAA-44
[3] = tested on: Candida parapsilosis ATCC 22019
[4] = tested on: Streptococcus pyogenes ATCC 19615
[5] = tested on: Pseudomonas aeruginosa ATCC 27853
[6] = tested on: Klebsiella pneumoniae ATCC 13883
[7] = tested on: Escherichia coli ATCC 25922
[8] = tested on: Staphylococcus aureus ATCC 43300
[9] = tested on: Saccharomyces cerevisiae
[10] = tested on: Enterococcus faecalis ATCC 29212
[11] = tested on: Staphylococcus aureus ATCC 25923
[12] = tested on: Staphylococcus aureus ST1065
[13] = tested on: Escherichia coli ML-35p
[14] = tested on: Escherichia coli DH5alpha
[15] = tested on: Staphylococcus xylosus
[16] = tested on: Salmonella enterica subsp. enterica serovar Typhimurium ATCC 14028
[17] = tested on: Bacillus cereus ATCC 11778
[18] = tested on: Staphylococcus aureus ATCC 29213
[19] = tested on: Klebsiella aerogenes ATCC 13048
[20] = tested on: Micrococcus luteus ATCC 10240
[21] = tested on: Escherichia coli BL21AI
[22] = tested on: Xanthomonas axonopodis pv. glycines ISBF 327
[23] = tested on: Staphylococcus aureus ATCC 29313
[24] = tested on: Bacillus subtilis ATCC 9372
[25] = tested on: Micrococcus luteus
[26] = tested on: Neurospora crassa
[27] = tested on: Bacillus anthracis Sterne 34F2
[28] = tested on: Burkholderia thailandensis
[29] = tested on: Salmonella typhimurium KCTC 1926
[30] = tested on: Escherichia coli KCTC 1682
[31] = tested on: Pseudomonas aeruginosa KCTC 1637
[32] = tested on: Enterococcus faecium
[33] = tested on: Staphylococcus epidermidis KCTC 1917
[34] = tested on: Staphylococcus aureus KCTC 1621
[35] = tested on: Staphylococcus aureus
[36] = tested on: Bacillus subtilis KCTC 3068

Compound CC[C@H](C)[C@H](NC(=O)[C@H](Cc1cnc[nH]1)NC(=O)[C@@H]1CCCN1C(=O)[C@@H](NC(=O)[C@H](CC(C)C)NC(=O)[C@H](CO)NC(=O)[C@H](CC(C)C)NC(=O)[C@@H](N)Cc1ccccc1)[C@@H](C)CC)C(=O)N[C@H](C(=O)N[C@@H](CO)C(=O)NCC(=O)N[C@H](C(=O)N[C@@H](C)C(=O)N[C@@H](CO)C(=O)N[C@@H](CC(C)C)C(=O)N[C@@H](C)C(=O)N[C@@H](CCCCN)C(=O)N[C@@H](Cc1cnc[nH]1)C(=O)N[C@@H](Cc1ccccc1)C(N)=O)C(C)C)C(C)C [FLSLIPHIVSGVASLAKHF] has an MIC [1] of 6.25 µM (≈ 12.7 µg/mL), an MIC [2] of 6.25 µM (≈ 12.7 µg/mL) and an MIC [3] of at least 50 µM. For the same compound, the MIC [4] was 1.56 µM (≈ 3.18 µg/mL), the MIC [5] was 200 µM (≈ 407 µg/mL) and the MIC [6] was 25 µM (≈ 50.9 µg/mL). The MIC [7] was 25 µM (≈ 50.9 µg/mL), the MIC [8] was 6.25 µM (≈ 12.7 µg/mL) and the MIC [9] was 6.25 µM (≈ 12.7 µg/mL). The MIC [10] was 25 µM (≈ 50.9 µg/mL), the MIC [11] was 6.25 µM (≈ 12.7 µg/mL) and the MIC [12] was 6.25 µM (≈ 12.7 µg/mL). The MIC [13] was 30 µM (≈ 61.1 µg/mL).
In the case of CC[C@H](C)[C@H](NC(=O)CNC(=O)[C@H](CO)NC(=O)CN)C(=O)N[C@@H](CC(C)C)C(=O)N[C@H](C(=O)N[C@@H](CC(C)C)C(=O)N[C@H](C(=O)N[C@@H](CCCCN)C(=O)N[C@@H](CCCN=C(N)N)C(=O)N[C@@H](CCCCN)C(=O)O)[C@@H](C)CC)[C@@H](C)CC [GSGILILIKRK], the MIC [14] is reported as at least 64 µM and the MIC [15] is reported as at least 64 µM.
Work on NCCCC[C@H](NC(=O)[C@H](CCCN=C(N)N)NC(=O)[C@H](CCCCN)NC(=O)[C@H](CO)NC(=O)CNC(=O)[C@H](CO)NC(=O)CNC(=O)[C@H](CO)NC(=O)[C@H](CCCCN)NC(=O)[C@H](CCCN=C(N)N)NC(=O)[C@@H](N)CCCCN)C(=O)O [KRKSGSGSKRK] yielded an MIC [14] of at least 64 µM and an MIC [15] of at least 64 µM.
CC[C@H](C)[C@H](N)C(=O)N[C@@H](CC(C)C)C(=O)NCC(=O)N[C@@H](CCCCN)C(=O)N[C@H](C(=O)N[C@@H](Cc1c[nH]c2ccccc12)C(=O)N[C@@H](CCC(=O)O)C(=O)NCC(=O)N[C@H](C(=O)N[C@@H](CCC(=O)O)C(=O)N[C@@H](CO)C(=O)N[C@@H](CC(C)C)C(=O)N[C@@H](Cc1ccccc1)C(N)=O)[C@@H](C)CC)[C@@H](C)CC [ILGKIWEGIESLF] was tested, and the MIC [16] was over 66.5 µM, the MIC [17] was at least 66.5 µM and the MIC [7] was over 66.5 µM. It also gave an MIC [18] of over 66.5 µM and an MIC [19] of at least 66.5 µM.
CC[C@H](C)[C@H](NC(=O)[C@H](C)NC(=O)[C@H](CCCN=C(N)N)NC(=O)[C@@H]1CCCN1C(=O)[C@@H]1CCCN1C(=O)[C@H](CCCN=C(N)N)NC(=O)[C@@H]1CCCN1C(=O)[C@H](CCCN=C(N)N)NC(=O)[C@@H]1CCCN1C(=O)[C@H](CC(C)C)NC(=O)[C@H](Cc1ccc(O)cc1)NC(=O)[C@@H]1CCCN1C(=O)[C@@H]1CCCN1C(=O)[C@H](CCCCN)NC(=O)[C@H](CC(=O)O)NC(=O)[C@@H](N)C(C)C)C(=O)N[C@@H](Cc1ccc(O)cc1)C(=O)N[C@@H](CC(N)=O)C(=O)N[C@@H](CCCN=C(N)N)C(N)=O [VDKPPYLPRPRPPRAIYNR] was tested, and the MIC [20] was 6.94 µM (≈ 16 µg/mL) and the MIC [21] was 13.9 µM (≈ 32 µg/mL).
CC[C@H](C)[C@H](NC(=O)[C@@H](NC(=O)[C@H](CCCCN)NC(=O)CNC(=O)[C@H](C)NC(=O)[C@H](CC(C)C)NC(=O)[C@H](CC(N)=O)NC(=O)[C@H](CCCCN)NC(=O)[C@H](CC(C)C)NC(=O)[C@@H](NC(=O)[C@H](CC(=O)O)NC(=O)[C@H](Cc1ccccc1)NC(=O)[C@H](Cc1ccccc1)NC(=O)[C@@H](N)Cc1ccccc1)[C@@H](C)O)C(C)C)C(=O)NCC(=O)N[C@@H](C)C(=O)N[C@@H](CC(C)C)C(=O)N[C@H](C(N)=O)[C@@H](C)O [FFFDTLKNLAGKVIGALT] gave an MIC [5] of 125 µM (≈ 244 µg/mL), an MIC [22] of at least 33 µM and an MIC [23] of at least 62 µM. For the same compound, the MIC [7] was 62 µM (≈ 121 µg/mL).
With CC[C@H](C)[C@H](N)C(=O)N[C@@H](CC(C)C)C(=O)NCC(=O)N[C@@H](C)C(=O)N[C@H](C(=O)N[C@@H](Cc1c[nH]c2ccccc12)C(=O)N[C@@H](CC(N)=O)C(=O)NCC(=O)N[C@H](C(=O)N[C@@H](CCCCN)C(=O)N[C@@H](CO)C(=O)N[C@@H](CC(C)C)C(=O)N[C@@H](Cc1ccccc1)C(N)=O)C(C)C)C(C)C [ILGAVWNGVKSLF] the MIC [16] was over 71.2 µM, the MIC [17] was at least 71.2 µM and the MIC [7] was over 71.2 µM. The MIC [18] was over 71.2 µM and the MIC [19] was at least 71.2 µM.
Work on CC[C@H](C)[C@H](NC(=O)[C@@H]1CCCN1C(=O)CNC(=O)[C@@H]1CCCN1C(=O)[C@H](CCCN=C(N)N)NC(=O)[C@@H]1CCCN1C(=O)[C@H](CCC(N)=O)NC(=O)[C@H](CC(N)=O)NC(=O)[C@@H]1CCCN1C(=O)[C@H](CC(N)=O)NC(=O)[C@H](Cc1ccccc1)NC(=O)[C@@H]1CCCN1C(=O)[C@H](CO)NC(=O)[C@@H]1CCCN1C(=O)[C@H](CCCN=C(N)N)NC(=O)[C@@H](NC(=O)[C@H](CC(=O)O)NC(=O)[C@H](Cc1ccccc1)NC(=O)[C@@H](NC(=O)[C@@H]1CCCN1C(=O)CNC(=O)[C@H](CCC(N)=O)NC(=O)[C@H](Cc1cnc[nH]1)NC(=O)[C@H](CCCN=C(N)N)NC(=O)[C@@H](N)Cc1cnc[nH]1)[C@@H](C)CC)[C@@H](C)O)C(=O)N[C@@H](Cc1ccc(O)cc1)C(=O)O [HRHQGPIFDTRPSPFNPNQPRPGPIY] yielded an MIC [24] of at least 100 µM, an MIC [25] of 0.707 µM (≈ 2.14 µg/mL) and an MIC [26] of 0.707 µM (≈ 2.14 µg/mL). For the same compound, the MIC [27] was at least 100 µM and the MIC [28] was at least 50 µM.
For NCCCC[C@H](NC(=O)[C@H](CCCCN)NC(=O)[C@H](Cc1ccccc1)NC(=O)[C@@H]1CCCN1C(=O)[C@H](Cc1c[nH]c2ccccc12)NC(=O)[C@H](Cc1c[nH]c2ccccc12)NC(=O)[C@H](Cc1c[nH]c2ccccc12)NC(=O)[C@@H]1CCCN1C(=O)[C@H](Cc1ccccc1)NC(=O)[C@H](CCCCN)NC(=O)[C@@H](N)CCCCN)C(=O)O [KKFPWWWPFKK], the MIC [29] was 5.07 µM (≈ 8 µg/mL), the MIC [30] was 5.07 µM (≈ 8 µg/mL) and the MIC [31] was 5.07 µM (≈ 8 µg/mL). It also gave an MIC [32] of 5.07 µM (≈ 8 µg/mL), an MIC [33] of 0.634 µM (≈ 1 µg/mL) and an MIC [34] of 2.54 µM (≈ 4 µg/mL). The MIC [35] was 3.58 µM (≈ 5.66 µg/mL) and the MIC [36] was 1.27 µM (≈ 2 µg/mL).
